How the values were obtained:
[1] = system: Fibroblasts (mouse BALB/c-3T3); assay: MIC on cell proliferation, 7 days in culture; type: cell-based
Procedure: (§1) The ability of arginine butyrate to induce differentiation has been evaluated and is measured by inhibition of growth, in some of the neoplastic cell types previously reported to be sensitive to (sodium) butyric acid, and found arginine butyrate to be as potent as butyric acid. We have also extended that work to additional cell types and found Arginine Butyrate to induce differentiation in these new cell types. Table 1 lists the cell types tested and the minimum inhibitory concentration (MIC) of sodium butyrate (NaB) and arginine butyrate (ArgB) on these cell lines. The MIC is the lowest dose that prevents all growth over the 7 days that the cells are maintained in culture, that is the minimum dose that prevents an increase in cell number. […] The […] of ArgB and NaB were equivalent on all cell lines tested.

[2] = system: Fibroblasts (normal human); assay: MIC on cell proliferation, 7 days in culture; type: cell-based; conditions: lowest dose that prevents all growth over 7 days
Procedure: as §1

[3] = system: Human Neuroblastoma Cell Line, SK-N-MC; assay: Proliferation of neuroblastoma cells, 4 weeks continuous exposure; type: cell-based; conditions: no treatment 1 × 10^8
Procedure: Human neuroblastoma cell line SK-N-MC was studied under different conditions. In this case, the cells were grown for 4 weeks with continuous exposure to sodium butyrate or arginine butyrate, and the cell number was quantitated at the end of this time.

[4] = Stability testing of arginine butyrate solution; type: physicochemical; conditions: solution for injection
Source text: Butyric acid is a short chain fatty acid present in foods such as dairy products. Arginine is an amino acid which is commonly used in hyperalimentation solutions in hospitals throughout the country. Butyric acid was obtained from Aldrich, catalog number W-212. L-Arginine is anhydrous. Arginine was combined with butyric acid, pH 5.0-5.5, in sterile, non-pyrogenic water for injection to neutralize the fatty acid. The solution was filtered through a Millipore System at a final concentration for injection of 100 mg/ml or 25 mg/ml. Each lot was pyrogen tested and tested for sterility and purity. […] Since 10% arginine butyrate solution is hypertonic (100 mg/ml), it must be infused through a long or deep IV access to avoid peripheral venous irritation. Arginine butyrate was infused via an infusion pump. European pharmacokinetic studies of arginine butyrate given as a “slow” and 90 minute bolus of 500 mls of a 5% solution (2.5 g/M in two normal volunteers, and found a 15 minute elimination period. Plasma levels from patients with hemoglobinopathies have shown that butyric acid disappears within 5 to 15 minutes after an infusion of up to 2,000 mg/kg/day.

refractory neoplasms = assay: Tumor response in patients with refractory neoplasms; type: in vivo, human
Procedure: Three patients with refractory neoplasms (breast, melanoma, adenocarcinoma, of unknown primary) have been enrolled and completed 1-2 cycles of arginine butyrate as a dose of 500 mg/kg/day over 6-8 hours for 10 days.
Three patients (with breast cancer, bowel cancer or Hodgkins disease) have completed two cycles of arginine butyrate at a dose of 750 mg/kg/day for 10 days. […] Otherwise, there was no other objective measures of organ progressed after treatment was topped. […] There was a further resolution of the disease during the second cycle. Disease progression was noted one month after second cycle was completed. At 1000 mg/kg/day, 3 patients have been enrolled on study.
An inter-group dose-escalation study is being conducted in patients with refractory malignancies. There are 3 patients per group with the dose levels starting at 500 mg/kg/day, and increasing by 250 mg/kg/day per group, if toxicity permits. Doses are given by 8 hour IV infusion, daily, for 5 days times 2 weeks, with weekends off, for a total of 10 days of treatment per cycle.

fetal globin mRNA = assay: Fetal globin mRNA response in patients; type: in vivo, human; conditions: β-hemoglobinopathies; IV 500 to 2,000 mg/kg/day, 2-7 weeks
Procedure: Eleven pediatric and twelve adult patients with β-hemoglobinopathies have been treated with IV arginine butyrate at a starting dose of 500 mg/kg/day for 2-7 weeks. Dose escalation at the rate of 250 mg/kg/day to a maximum of 2,000 mg/kg/day was permitted.

[5] = system: Colonic Adenocarcinoma (HT 29); assay: Differentiation and growth arrest of tumor cell line; type: cell-based, human
Procedure: (§2) The effects of arginine butyrate compounds on differentiation of several human tumor cell lines were evaluated by visual inspection and by histochemical and pathological staining:
Inhibition of DNA synthesis (as measured by ^3H-thymidine incorporation) occurred by 6 hours. Expression of the proto-oncogene c-myc was decreased by 2 hours.

Gastric Carcinoma (AGS) = assay: Differentiation of tumor cell line; type: cell-based, human
Procedure: as §2
Although HLA antigens are expressed on normal, fully differentiated cells, they are not expressed or are minimally expressed on most neoplastic cells. In this way neoplastic cells escape recognition by the cellular arm of the immune system and are able to survive.

[6] = system: n-myc transcript in neuroblastoma cells; assay: Expression of oncogene n-myc transcript; type: cell-based, human; conditions: 1 mM
K562 = assay: DNA fragmentation by flow cytometry; type: cell-based, human; conditions: alone, FIG. 3
Source text: It has been shown that sodium butyrate can induce apoptosis in human tumors or tumor cell lines (L. A. Noorduyn et al., Histopathology 21:59, 1992).

IL-2 receptor = assay: Expression of the IL-2 receptor; type: cell-based
Source text: The IL-2 receptor is a target for therapies currently under development. For example, antibodies directed to the IL-2 receptor and conjugated to a toxin, are currently being tested in the clinic, and IL-2, itself conjugated to a toxin, is currently being tested in the clinic. […] This increased expression might potentiate the therapies under development.

[7] = system: SY5Y neuroblastoma cell line; assay: Induction of apoptosis / DNA fragmentation

arginine butyrate
MIC [1]: >5,000 μM | MIC [2]: >5,000 μM | Cell Number ([3]; 0.05 mM): 1 × 10^5 | Cell Number ([3]; 1.0 mM): <1 × 10 ^3 | stability in glass containers [4]: up to 404 days | objective tumor responses (refractory neoplasms; 500 mg/kg/day, three patients, 1-2 cycles): No objective tumor responses were noted | stable disease (refractory neoplasms; 750 mg/kg/day, after two cycles): Two patients had stable disease after two cycles | partial response, reduction in tumor area (refractory neoplasms; 750 mg/kg/day, patient with Hodgkin's disease, after first cycle): > 80% | response as judged by increase in fetal globin mRNA (fetal globin mRNA): most patients showed response | morphology and differentiation markers [5]: developed a mature brush border, and increased expression of sucrase/isomaltase | time by which expression of proto-oncogene c-myc was decreased [5]: ≤ 2 h | time by which inhibition of DNA synthesis (3H-thymidine incorporation) occurred [5]: ≤ 6 h | growth arrest ([5]; no further growth out to 25 days): absolute growth arrest by day 3-4 | differentiation marker expression (Gastric Carcinoma (AGS)): began to express mucin | expression of n-myc transcript [6]: decreased approximately Mold | DNA fragmentation and cellular shrinkage (K562): DNA fragmentation and cellular shrinkage | IL-2 receptor expression (IL-2 receptor): increase expression of the IL-2 receptor | apoptosis ([7]; FIG. 1c): induces apoptosis | DNA fragmentation ([7]; both 0.5 and 1.0 mM): significant DNA fragmentation was found

— patent US6677302B2, “Compositions and methods for the treatment of viral disorders” (The Trustees of Boston University, priority 1996, dated 2004)
